Where two headings read alike, the source gives them in different places.
Legend:
[1] = system: HLA-A2.1 positive target cells and wild-type peptide; assay: in vitro primary CTL induction with human PBMC, read-out on peptide-loaded targets; assay type: cell-based
Method: In the final step of the epitope screening process, peptides with high cross-reactive MHC binding to the HLA-A2 supertype family receptors were tested for immunogenicity. The assay is an in vitro primary CTL induction system where CD8^+ PBMC from normal subjects are stimulated in vitro, initially with peptide-loaded dendritic cells (DCs) (adherent PBMC expanded in GM-CSF and IL-4), followed by two weekly cycles of restimulation with peptide (Keogh, E., et al., J. Immunol. 167:787-796 (2001); Kawashima, I., et al., Hum. Immunol. 59:1-14 (1998)). Following expansion of naïve precursor cells, CTL activity is determined in the presence of HLA-A2.1 positive target cells and wild-type peptide, using cytotoxicity (^51Cr-release assay) or interferon-gamma (IFN-γ) production (ELISA) as the read-out. Immunogenic peptides that induced CTL were further tested for responses against the naturally processed epitope expressed on tumor cell lines. Epitopes that induced tumor-reactive CTL were considered as vaccine candidates.

[2] = Solubility of individual peptides
[3] = system: purified HLA-DR molecules; conditions: cited from earlier work; for IC50: high or intermediate affinity, most prevalent HLA-DR molecules, read-out: IC50 for HLA-DR binding; for Number of HLA-DR molecules bound: out of 16 DR molecules tested
HLA-A2.1 transgenic mice = conditions: shown by others; cited from earlier work
[4] = system: PBMC obtained from healthy donors and cancer patients; conditions: primary in vitro induction in healthy donors and recall responses in cancer patients; cited from earlier work
[5] = system: patients with recurrent or residual cervical carcinoma; conditions: cited from earlier work
[6] = system: colon cancer and NSCLC patients; conditions: out of 12 patients who received the DC vaccine; cited from earlier work
HLA-A2 supertype alleles = assay: MHC binding of motif-containing peptides to purified HLA-A2 supertype molecules; parameters: species or system human; conditions: all peptides bind prototype HLA-A2.1
Description: Assays for determining binding are described in detail, e.g., in PCT publications WO 94/20127 and WO 94/03205, and other publications such Sidney et al., Current Protocols in Immunology 18.3.1 (1998); Sidney, et al., J. Immunol. 154:247 (1995); and Sette, et al., Mol. Immunol. 31:813 (1994). It should be noted that IC50 values can change, often dramatically, if the assay conditions are varied, and depending on the particular reagents used (e.g., HLA preparation, etc.). For example, excessive concentrations of HLA molecules will increase the apparent measured IC50 of a given ligand.
A computer-based motif and algorithm search was performed on the primary amino acid sequences of CEA, MAGE-2/3, HER-2/neu, and p53 to predict peptides most likely to bind the MHC molecules of the five alleles of the HLA-A2 supertype family (Tables 4 and 6) (Sette, A. and J. Sidney, Immunogenetics 50:201-212 (1999)). Motif and algorithm-positive peptides were then synthesized and tested for binding to purified HLA-A2.1, the molecule most frequently expressed in humans as well as other MHC molecules of the HLA-A2 supertype family.

[7] = Solubility, Acidic conditions (pH 2-4), 0.1% TFA, 0.15-0.1875M acetic acid, 25 mM pH 4 sodium acetate, 2-5 mg/ml
[8] = pH 9.6, Solubility, Basic conditions (pH 9.6-13), 25 mM pH 9.6 arginine, 25 mM pH 9.6 sodium bicarbonate, 0.1M NaOH, 2-5 mg/ml
[9] = Solubility, Acidic conditions (pH 2-4)
[10] = pH 9.6, Solubility, Basic conditions (pH 9.6-13)

Question: Which “CTL activity of heteroclitic analog versus wild-type peptide” value [1] does the source give for `CC[C@H](C)[C@H](NC(=O)[C@H](CCC(=O)O)NC(=O)[C@H](C)NC(=O)[C@@H](NC(=O)[C@@H](N)CCCCN)C(C)C)C(=O)N[C@H](C(=O)N[C@@H](Cc1c[nH]cn1)C(=O)N[C@@H](Cc1ccccc1)C(=O)N[C@@H](CC(C)C)C(=O)O)C(C)C` [Peptide 1352.03] here?
Answer: strong CTL activity which exceeds that of the wild-type peptide

Question: What about the solubility [2, 7] of the same compound?
Answer: > 2000 µg/mL

Question: And the solubility ([2]; Solubility, DMSO, 2-5 mg/ml)?
Answer: > 2000 µg/mL

Question: And the solubility [2, 8]?
Answer: > 2000 µg/mL

Question: And the “Solubility at physiological pH” value [2]?
Answer: soluble

Question: For aKXVAAWTLKAAa-NH2, which IC50 [3] is on record?
Answer: ≤ 1000 nM

Question: What about the “Number of HLA-DR molecules bound” value [3] of the same compound?
Answer: 15

Question: Which solubility [9] does the source give for `CC(C)C[C@H](NC(=O)[C@@H](N)CC(C)C)C(=O)N[C@H](C(=O)N[C@@H](Cc1ccccc1)C(=O)N[C@@H](Cc1c[nH]c2ccccc12)C(=O)N[C@@H](CC(N)=O)C(=O)N1CCC[C@H]1C(=O)N1CCC[C@H]1C(=O)N[C@H](C(=O)O)C(C)C)[C@@H](C)O` [Peptide 1243.08] here?
Answer: > 2000 µg/mL

Question: And the solubility (Solubility, DMSO)?
Answer: > 2000 µg/mL

Question: What about the solubility [10] of the same compound?
Answer: > 2000 µg/mL

Question: Which “CTL activity of heteroclitic analog versus wild-type peptide” value [1] does the source give for `CC[C@H](C)[C@H](N)C(=O)N[C@@H](CCSC)C(=O)N[C@H](C(=O)NCC(=O)N[C@@H](Cc1c[nH]cn1)C(=O)N[C@@H](CC(C)C)C(=O)N[C@H](C(=O)NCC(=O)N[C@H](C(=O)O)C(C)C)C(C)C)[C@@H](C)CC` [Peptide 1352.02] here?
Answer: strong CTL activity which exceeds that of the wild-type peptide

Question: And the solubility [2, 7]?
Answer: > 2000 µg/mL

Question: And the solubility ([2]; Solubility, DMSO, 2-5 mg/ml)?
Answer: > 2000 µg/mL

Question: What about the solubility [2, 8] of the same compound?
Answer: < 5000 µg/mL

Question: Which “Number of HLA-DR molecules bound” value [3] does the source give for “TT 830-843: tetanus toxoid (TT) peptide 830-843, a "universal" epitope (QYIKANSKFIGITE; UniProt P04958 830-843, looked up, fragment) [reference compound]” here?
Answer: seven

Question: Which solubility [2, 7] does the source give for `CC(C)C[C@H](NC(=O)[C@H](CCC(N)=O)NC(=O)[C@@H](NC(=O)[C@@H]1CCCN1C(=O)C(C)(C)NC(=O)[C@H](CC(C)C)NC(=O)[C@@H](N)CCCCN)C(C)C)C(=O)N[C@@H](Cc1c[nH]c2ccccc12)C(=O)N[C@H](C(=O)O)C(C)C` [Peptide 1323.06, KLBPVQLWV] here?
Answer: > 2000 µg/mL

Question: What about the solubility ([2]; Solubility, DMSO, 2-5 mg/ml) of the same compound?
Answer: > 2000 µg/mL

Question: And the solubility [2, 8]?
Answer: > 2000 µg/mL

Question: What about the “Solubility at physiological pH” value [2] of the same compound?
Answer: soluble

Question: Which results are given for `CC(C)C[C@H](NC(=O)[C@H](CO)NC(=O)CNC(=O)[C@H](Cc1ccccc1)NC(=O)[C@@H](NC(=O)[C@@H](N)CCCCN)C(C)C)C(=O)N[C@@H](C)C(=O)N[C@@H](Cc1ccccc1)C(=O)N[C@H](C(=O)O)C(C)C` [Peptide 1334.10]?
Answer: solubility [9]: > 2000 µg/mL; solubility (Solubility, DMSO): > 2000 µg/mL; solubility [10]: < 5000 µg/mL

Question: Which “peptide and tumor cell-reactive CTL in vivo” value (HLA-A2.1 transgenic mice) does the source give for `CSCC[C@H](NC(=O)[C@@H](N)CO)C(=O)N1CCC[C@H]1C(=O)N1CCC[C@H]1C(=O)N1CCC[C@H]1C(=O)NCC(=O)N[C@H](C(=O)N[C@@H](CCCNC(=N)N)C(=O)N[C@H](C(=O)O)C(C)C)[C@@H](C)O` [Peptide 1295.03] here?
Answer: induce peptide and tumor cell-reactive CTL in vivo

Question: And the solubility [2, 7]?
Answer: > 2000 µg/mL

Question: And the solubility ([2]; Solubility, DMSO, 2-5 mg/ml)?
Answer: > 2000 µg/mL

Question: What about the solubility [2, 8] of the same compound?
Answer: > 2000 µg/mL

Question: What about the “Solubility at physiological pH” value [2] of the same compound?
Answer: soluble

Question: With “p53.149: wild-type version of analog p53.149M2 used in EP-2101 (STPPPGTRV; UniProt P04637 149-157, looked up, fragment) [reference compound]” as the compound, how does the “specific CTL responses using PBMC” value [4] read?
Answer: induced specific CTL responses

Question: For `CC(C)C[C@H](NC(=O)[C@H](CC(C)C)NC(=O)[C@@H](N)CCCNC(=N)N)C(=O)N[C@@H](CCC(N)=O)C(=O)N[C@@H](CCC(=O)O)C(=O)N[C@H](C(=O)N[C@@H](CCC(=O)O)C(=O)N[C@@H](CC(C)C)C(=O)N[C@H](C(=O)O)C(C)C)[C@@H](C)O` [Peptide 1013.08], which solubility (Solubility, DMSO) is on record?
Answer: > 2000 µg/mL

Question: And the solubility [10]?
Answer: > 2000 µg/mL

Question: And the “specific CTL responses using PBMC” value [4]?
Answer: induced specific CTL responses

Question: With `CC[C@H](C)[C@H](NC(=O)CNC(=O)[C@H](Cc1ccccc1)NC(=O)[C@@H](NC(=O)[C@H](CC(C)C)NC(=O)[C@H](CCC(N)=O)NC(=O)[C@H](CC(C)C)NC(=O)[C@@H](N)Cc1ccc(O)cc1)C(C)C)C(=O)N[C@@H](CCC(=O)O)C(=O)N[C@H](C(=O)O)C(C)C` [Peptide 1090.01] as the compound, how does the “peptide and tumor cell-reactive CTL in vivo” value (HLA-A2.1 transgenic mice) read?
Answer: induce peptide and tumor cell-reactive CTL in vivo

Question: What about the solubility [9] of the same compound?
Answer: < 5000 µg/mL

Question: What about the solubility (Solubility, DMSO) of the same compound?
Answer: > 2000 µg/mL

Question: What about the solubility [10] of the same compound?
Answer: > 2000 µg/mL

Question: With `CC(C)C[C@H](NC(=O)[C@@H](NC(=O)[C@H](Cc1c[nH]c2ccccc12)NC(=O)[C@H](C)NC(=O)[C@H](C)NC(=O)[C@@H](NC(=O)[C@H](CC1CCCCC1)NC(=O)[C@H](CCCCN)NC(=O)[C@@H](C)N)C(C)C)[C@@H](C)O)C(=O)N[C@@H](CCCCN)C(=O)N[C@@H](C)C(=O)N[C@@H](C)C(=O)N[C@H](C)C(=O)O` [Peptide 965.10, aKXVAAWTLKAAa] as the compound, how does the solubility [2] read?
Answer: > 2000 µg/mL

Question: What about the solubility ([2]; pH 9.6) of the same compound?
Answer: < 5000 µg/mL

Question: What about the IC50 [3] of the same compound?
Answer: ≤ 1000 nM

Question: And the immunogenicity in humans ([5]; co-emulsified with HPV-derived CTL epitopes)?
Answer: highly immunogenic in humans

Question: What about the safety ([5]; patients with recurrent or residual cervical carcinoma) of the same compound?
Answer: Safety was, in fact, demonstrated

Question: With `CC(C)C[C@H](NC(=O)[C@H](CC(N)=O)NC(=O)[C@H](CC(C)C)NC(=O)[C@H](CC(=O)O)NC(=O)[C@H](C)NC(=O)CNC(=O)[C@H](CO)NC(=O)[C@H](CC(C)C)NC(=O)[C@@H](N)Cc1ccc(O)cc1)C(=O)O` [Peptide 1350.01] as the compound, how does the solubility [2, 7] read?
Answer: > 2000 µg/mL

Question: And the solubility ([2]; Solubility, DMSO, 2-5 mg/ml)?
Answer: > 2000 µg/mL

Question: And the solubility [2, 8]?
Answer: > 2000 µg/mL

Question: And the “Solubility at physiological pH” value [2]?
Answer: soluble

Question: And the clinical responders [6]?
Answer: five

Question: What about the “No. A2 Alleles Crossbound” value (HLA-A2 supertype alleles) of the same compound?
Answer: 3

From patent US9394350B2, “HLA-A2 tumor associated antigen peptides and compositions” (OSE PHARMA INTERNATIONAL SA, priority 2003, dated 2016)
